Measurements: ChEMBL document CHEMBL5303763, “Data for DCP probe BI-3802” (2023)
Values belong to the molecule of their own block, whether it stands above or below them.

How the values were obtained:
[1] = biological target: Zinc finger and BTB domain-containing protein 32 (Homo sapiens, UniProt Q9Y2Y4); experiment: SPR (ZBTB32), Ontario institute for cancer research
[2] = biological target: Kappa-type opioid receptor (Homo sapiens) (UniProt P41145); experiment: KAPPA(KOP)_HU Eurofins SafetyScreen44 (BI); conditions: Compound concentration 10.0 uM
[3] = biological target: Tyrosine-protein kinase ABL1 (Homo sapiens) (UniProt P00519); experiment: ABL1 Invitrogen Lab (UK) kinase screen (BI); conditions: Compound concentration 1.0 uM
[4] = biological target: Cannabinoid receptor 1 (Homo sapiens) (UniProt P21554); experiment: CB1/CENTR/H Eurofins SafetyScreen44 (BI); conditions: Compound concentration 10.0 uM
[5] = biological target: Serine/threonine-protein kinase Nek1 (Homo sapiens) (UniProt Q96PY6); experiment: NEK1 Invitrogen Lab (UK) kinase screen (BI); conditions: Compound concentration 1.0 uM
[6] = biological target: T1, 5-hydroxytryptamine receptor 3A (Homo sapiens) (UniProt P46098); conditions: Compound concentration 10.0 uM
T1 sequence (whole entry): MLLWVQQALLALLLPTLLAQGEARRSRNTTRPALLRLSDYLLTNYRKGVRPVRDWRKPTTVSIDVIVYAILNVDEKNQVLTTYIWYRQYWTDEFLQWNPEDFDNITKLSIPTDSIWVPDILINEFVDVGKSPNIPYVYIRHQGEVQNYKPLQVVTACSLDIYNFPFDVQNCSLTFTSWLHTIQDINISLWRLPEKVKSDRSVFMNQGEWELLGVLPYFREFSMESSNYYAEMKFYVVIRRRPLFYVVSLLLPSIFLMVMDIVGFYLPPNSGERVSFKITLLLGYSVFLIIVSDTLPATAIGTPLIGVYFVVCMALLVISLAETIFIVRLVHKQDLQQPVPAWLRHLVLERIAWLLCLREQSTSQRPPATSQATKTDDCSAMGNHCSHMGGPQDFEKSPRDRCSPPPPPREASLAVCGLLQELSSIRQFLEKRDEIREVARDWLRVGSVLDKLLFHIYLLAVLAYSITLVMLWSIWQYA

[7] = biological target: 5-hydroxytryptamine receptor 2B (Homo sapiens) (UniProt P41595); conditions: Compound concentration 10.0 uM
[8] = biological target: Beta-2 adrenergic receptor (Homo sapiens) (UniProt P07550); conditions: Compound concentration 10.0 uM
[9] = biological target: Alpha-1D adrenergic receptor (Homo sapiens) (UniProt P25100); conditions: Compound concentration 10.0 uM
[10] = biological target: Alpha-2C adrenergic receptor (Homo sapiens) (UniProt P18825); conditions: Compound concentration 10.0 uM
[11] = tested on: Voltage-gated K+ channel Kv1 (Rattus norvegicus); experiment: K+/VOLT/RA Eurofins SafetyScreen44 (BI); conditions: rat brain, probe [125I]a-dendrotoxin, read-out: % Ctrl
[12] = biological target: Proto-oncogene tyrosine-protein kinase receptor Ret (Homo sapiens) (UniProt P07949); experiment: RET Invitrogen Lab (UK) kinase screen (BI); conditions: Compound concentration 1.0 uM
[13] = biological target: SRSF protein kinase 2 (Homo sapiens) (UniProt P78362); experiment: SRPK2 Invitrogen Lab (UK) kinase screen (BI); conditions: Compound concentration 1.0 uM
[14] = biological target: D(1B) dopamine receptor (Homo sapiens) (UniProt P21918); conditions: Compound concentration 10.0 uM
[15] = biological target: Focal adhesion kinase 1 (Homo sapiens) (UniProt Q05397); experiment: PTK2 Invitrogen Lab (UK) kinase screen (BI); conditions: Compound concentration 1.0 uM
[16] = biological target: T2, Muscarinic acetylcholine receptor M2 (Homo sapiens) (UniProt P08172); conditions: Compound concentration 10.0 uM
T2 sequence (whole entry): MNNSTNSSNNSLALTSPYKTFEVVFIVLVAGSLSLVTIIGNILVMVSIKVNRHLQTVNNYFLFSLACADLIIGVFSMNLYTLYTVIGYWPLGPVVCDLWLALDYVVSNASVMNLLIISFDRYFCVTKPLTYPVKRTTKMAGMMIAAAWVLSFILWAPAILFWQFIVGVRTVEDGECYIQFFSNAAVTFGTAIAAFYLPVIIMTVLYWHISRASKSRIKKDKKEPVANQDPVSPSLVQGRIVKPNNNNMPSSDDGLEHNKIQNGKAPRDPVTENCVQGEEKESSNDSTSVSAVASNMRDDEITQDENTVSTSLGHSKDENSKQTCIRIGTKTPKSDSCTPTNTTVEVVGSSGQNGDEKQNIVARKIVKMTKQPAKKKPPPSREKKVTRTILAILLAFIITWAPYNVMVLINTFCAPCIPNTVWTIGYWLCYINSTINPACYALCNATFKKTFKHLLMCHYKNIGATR

[17] = biological target: Mitogen-activated protein kinase 14 (Homo sapiens) (UniProt Q16539); experiment: MAPK14 Invitrogen Lab (UK) kinase screen (BI); conditions: Compound concentration 1.0 uM
[18] = biological target: cAMP-dependent protein kinase catalytic subunit alpha (Homo sapiens) (UniProt P17612); experiment: PRKACA Invitrogen Lab (UK) kinase screen (BI); conditions: Compound concentration 1.0 uM
[19] = biological target: Mitogen-activated protein kinase 9 (Homo sapiens) (UniProt P45984); experiment: MAPK9 Invitrogen Lab (UK) kinase screen (BI); conditions: Compound concentration 1.0 uM
[20] = biological target: Aurora kinase B (Homo sapiens) (UniProt Q96GD4); experiment: AURKB Invitrogen Lab (UK) kinase screen (BI); conditions: Compound concentration 1.0 uM
[21] = biological target: Fibroblast growth factor receptor 1 (Homo sapiens) (UniProt P11362); experiment: FGFR1 Invitrogen Lab (UK) kinase screen (BI); conditions: Compound concentration 1.0 uM
[22] = biological target: Mitogen-activated protein kinase kinase kinase 8 (Homo sapiens) (UniProt P41279); experiment: MAP3K8 Invitrogen Lab (UK) kinase screen (BI); conditions: Compound concentration 1.0 uM
[23] = biological target: Proto-oncogene tyrosine-protein kinase Src (Homo sapiens) (UniProt P12931); experiment: SRC Invitrogen Lab (UK) kinase screen (BI); conditions: Compound concentration 1.0 uM
[24] = biological target: Sodium-dependent noradrenaline transporter (Homo sapiens) (UniProt P23975); conditions: Compound concentration 10.0 uM
[25] = biological target: Casein kinase I isoform alpha (Homo sapiens) (UniProt P48729); experiment: CSNK1A1 Invitrogen Lab (UK) kinase screen (BI); conditions: Compound concentration 1.0 uM
[26] = biological target: MAP kinase-activated protein kinase 3 (Homo sapiens) (UniProt Q16644); experiment: MAPKAPK3 Invitrogen Lab (UK) kinase screen (BI); conditions: Compound concentration 1.0 uM
[27] = biological target: Serine/threonine-protein kinase Chk1 (Homo sapiens) (UniProt O14757); experiment: CHEK1 Invitrogen Lab (UK) kinase screen (BI); conditions: Compound concentration 1.0 uM
[28] = biological target: Ribosomal protein S6 kinase beta-1 (Homo sapiens) (UniProt P23443); experiment: RPS6KB1 Invitrogen Lab (UK) kinase screen (BI); conditions: Compound concentration 1.0 uM
[29] = biological target: Kappa-type opioid receptor (Rattus norvegicus) (UniProt P34975); experiment: KAPPA/R Eurofins SafetyScreen44 (BI); conditions: Compound concentration 10.0 uM
[30] = biological target: Inhibitor of nuclear factor kappa-B kinase subunit beta (Homo sapiens) (UniProt O14920); experiment: IKBKB Invitrogen Lab (UK) kinase screen (BI); conditions: Compound concentration 1.0 uM
[31] = biological target: Cyclin-dependent kinase 2/cyclin A (Homo sapiens) (UniProt P24941+P20248+P78396); experiment: CDK2/CYCLINA Invitrogen Lab (UK) kinase screen (BI); format: protein-complex assay; conditions: Compound concentration 1.0 uM

Chain of Sodium-dependent noradrenaline transporter (Homo sapiens) (P23975 whole entry, canonical isoform): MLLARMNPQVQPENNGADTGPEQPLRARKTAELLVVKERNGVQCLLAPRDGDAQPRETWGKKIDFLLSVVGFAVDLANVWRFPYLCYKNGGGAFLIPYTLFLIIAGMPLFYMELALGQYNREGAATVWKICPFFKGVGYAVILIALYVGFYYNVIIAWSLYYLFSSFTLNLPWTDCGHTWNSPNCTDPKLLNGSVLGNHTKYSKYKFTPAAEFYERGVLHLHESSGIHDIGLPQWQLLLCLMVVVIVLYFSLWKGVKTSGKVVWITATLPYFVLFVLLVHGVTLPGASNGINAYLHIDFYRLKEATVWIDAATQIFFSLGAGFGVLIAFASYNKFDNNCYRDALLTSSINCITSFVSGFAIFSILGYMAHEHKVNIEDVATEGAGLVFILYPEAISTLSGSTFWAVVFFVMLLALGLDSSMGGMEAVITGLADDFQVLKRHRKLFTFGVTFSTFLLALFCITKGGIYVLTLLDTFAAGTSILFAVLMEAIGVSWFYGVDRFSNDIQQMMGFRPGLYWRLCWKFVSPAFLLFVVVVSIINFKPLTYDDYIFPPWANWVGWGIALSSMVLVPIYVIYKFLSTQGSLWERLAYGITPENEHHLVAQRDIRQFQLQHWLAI
Chain of D(1B) dopamine receptor (Homo sapiens) (P21918 whole entry): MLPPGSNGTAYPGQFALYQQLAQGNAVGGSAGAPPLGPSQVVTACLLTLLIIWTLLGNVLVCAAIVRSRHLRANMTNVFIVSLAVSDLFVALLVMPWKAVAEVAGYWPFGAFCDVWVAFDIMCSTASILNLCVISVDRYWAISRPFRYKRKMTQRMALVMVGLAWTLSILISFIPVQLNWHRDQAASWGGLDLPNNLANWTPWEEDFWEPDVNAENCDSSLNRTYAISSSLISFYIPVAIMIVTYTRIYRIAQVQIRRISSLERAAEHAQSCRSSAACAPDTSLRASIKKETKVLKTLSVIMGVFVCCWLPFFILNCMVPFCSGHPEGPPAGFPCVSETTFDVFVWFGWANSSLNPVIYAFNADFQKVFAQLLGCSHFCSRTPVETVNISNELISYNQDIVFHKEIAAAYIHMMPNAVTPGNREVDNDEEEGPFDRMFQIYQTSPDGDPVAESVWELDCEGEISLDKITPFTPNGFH
Chain of Alpha-1D adrenergic receptor (Homo sapiens) (P25100 whole entry): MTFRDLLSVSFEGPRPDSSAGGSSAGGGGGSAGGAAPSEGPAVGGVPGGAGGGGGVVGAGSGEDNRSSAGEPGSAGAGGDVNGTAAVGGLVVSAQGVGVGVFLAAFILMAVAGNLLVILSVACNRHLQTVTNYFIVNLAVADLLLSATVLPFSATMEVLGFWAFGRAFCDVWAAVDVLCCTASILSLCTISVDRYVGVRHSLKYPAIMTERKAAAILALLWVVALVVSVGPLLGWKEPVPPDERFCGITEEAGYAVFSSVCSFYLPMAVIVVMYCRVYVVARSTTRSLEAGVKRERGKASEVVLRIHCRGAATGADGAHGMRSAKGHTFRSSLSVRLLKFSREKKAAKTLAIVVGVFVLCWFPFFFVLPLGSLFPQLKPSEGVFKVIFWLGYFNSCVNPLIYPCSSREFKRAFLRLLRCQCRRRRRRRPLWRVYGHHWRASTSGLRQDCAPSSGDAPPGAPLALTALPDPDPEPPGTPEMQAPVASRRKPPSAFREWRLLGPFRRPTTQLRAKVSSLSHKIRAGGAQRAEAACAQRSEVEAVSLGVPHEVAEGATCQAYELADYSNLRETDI
Chain of Beta-2 adrenergic receptor (Homo sapiens) (P07550 whole entry, looked up): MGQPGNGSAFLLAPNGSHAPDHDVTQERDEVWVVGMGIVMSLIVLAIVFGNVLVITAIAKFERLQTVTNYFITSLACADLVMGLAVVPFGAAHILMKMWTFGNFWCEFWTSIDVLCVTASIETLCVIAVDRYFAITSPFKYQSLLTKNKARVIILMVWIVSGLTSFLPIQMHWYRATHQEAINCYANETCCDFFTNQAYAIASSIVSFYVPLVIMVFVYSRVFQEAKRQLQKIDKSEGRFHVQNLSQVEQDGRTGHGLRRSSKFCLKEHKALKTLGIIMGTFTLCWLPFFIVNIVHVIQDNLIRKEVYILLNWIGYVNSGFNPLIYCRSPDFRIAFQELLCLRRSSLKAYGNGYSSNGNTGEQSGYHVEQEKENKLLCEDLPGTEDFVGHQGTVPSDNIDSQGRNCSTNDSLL
Chain of Alpha-2C adrenergic receptor (Homo sapiens) (P18825 whole entry): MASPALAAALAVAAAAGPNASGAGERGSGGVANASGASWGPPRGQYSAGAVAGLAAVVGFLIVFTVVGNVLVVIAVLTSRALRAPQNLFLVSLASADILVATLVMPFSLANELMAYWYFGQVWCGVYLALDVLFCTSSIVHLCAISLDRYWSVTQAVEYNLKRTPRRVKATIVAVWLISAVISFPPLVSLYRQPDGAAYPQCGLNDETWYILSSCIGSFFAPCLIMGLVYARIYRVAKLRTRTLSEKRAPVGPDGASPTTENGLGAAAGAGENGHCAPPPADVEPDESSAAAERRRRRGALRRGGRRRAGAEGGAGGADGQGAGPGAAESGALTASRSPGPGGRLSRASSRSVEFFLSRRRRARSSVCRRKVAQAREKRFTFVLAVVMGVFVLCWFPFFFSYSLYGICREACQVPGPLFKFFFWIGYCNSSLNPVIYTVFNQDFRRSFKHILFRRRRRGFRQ
Chain of 5-hydroxytryptamine receptor 2B (Homo sapiens) (P41595 whole entry): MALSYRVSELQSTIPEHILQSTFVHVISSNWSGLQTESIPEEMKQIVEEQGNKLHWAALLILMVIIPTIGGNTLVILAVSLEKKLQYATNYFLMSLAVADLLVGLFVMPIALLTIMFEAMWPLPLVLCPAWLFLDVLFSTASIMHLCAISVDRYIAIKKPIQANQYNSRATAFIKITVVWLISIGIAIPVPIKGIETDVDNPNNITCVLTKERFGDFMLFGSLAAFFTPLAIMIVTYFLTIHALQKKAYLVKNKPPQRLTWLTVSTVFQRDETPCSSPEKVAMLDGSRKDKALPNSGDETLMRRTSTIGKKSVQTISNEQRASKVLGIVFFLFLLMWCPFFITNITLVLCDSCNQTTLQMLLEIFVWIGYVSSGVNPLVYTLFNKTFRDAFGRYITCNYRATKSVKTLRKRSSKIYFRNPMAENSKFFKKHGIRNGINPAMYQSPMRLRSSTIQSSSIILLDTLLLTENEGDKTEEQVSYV
Chain of Kappa-type opioid receptor (Homo sapiens) (P41145 whole entry): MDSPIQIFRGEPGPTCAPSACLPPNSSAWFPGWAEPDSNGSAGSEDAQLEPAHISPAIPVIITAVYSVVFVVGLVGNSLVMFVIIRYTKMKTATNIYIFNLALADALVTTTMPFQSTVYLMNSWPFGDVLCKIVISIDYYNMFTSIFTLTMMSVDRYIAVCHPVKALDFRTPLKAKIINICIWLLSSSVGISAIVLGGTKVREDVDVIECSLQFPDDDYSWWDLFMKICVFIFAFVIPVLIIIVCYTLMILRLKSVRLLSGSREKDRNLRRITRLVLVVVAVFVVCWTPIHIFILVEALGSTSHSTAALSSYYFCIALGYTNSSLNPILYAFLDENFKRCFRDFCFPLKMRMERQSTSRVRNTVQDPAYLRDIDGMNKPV
Chain of MAP kinase-activated protein kinase 3 (Homo sapiens) (Q16644 whole entry, looked up): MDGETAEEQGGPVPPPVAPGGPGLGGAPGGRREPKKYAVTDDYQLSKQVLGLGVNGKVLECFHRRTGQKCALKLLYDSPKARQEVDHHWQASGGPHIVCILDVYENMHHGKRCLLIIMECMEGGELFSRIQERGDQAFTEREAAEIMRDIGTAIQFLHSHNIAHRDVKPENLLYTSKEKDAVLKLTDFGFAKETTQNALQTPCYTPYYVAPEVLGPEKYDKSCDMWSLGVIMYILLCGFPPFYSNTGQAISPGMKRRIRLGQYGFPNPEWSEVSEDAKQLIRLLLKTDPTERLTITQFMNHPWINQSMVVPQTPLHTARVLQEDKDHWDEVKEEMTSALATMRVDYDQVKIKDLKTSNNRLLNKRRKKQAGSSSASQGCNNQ
Chain of Ribosomal protein S6 kinase beta-1 (Homo sapiens) (P23443 whole entry, looked up): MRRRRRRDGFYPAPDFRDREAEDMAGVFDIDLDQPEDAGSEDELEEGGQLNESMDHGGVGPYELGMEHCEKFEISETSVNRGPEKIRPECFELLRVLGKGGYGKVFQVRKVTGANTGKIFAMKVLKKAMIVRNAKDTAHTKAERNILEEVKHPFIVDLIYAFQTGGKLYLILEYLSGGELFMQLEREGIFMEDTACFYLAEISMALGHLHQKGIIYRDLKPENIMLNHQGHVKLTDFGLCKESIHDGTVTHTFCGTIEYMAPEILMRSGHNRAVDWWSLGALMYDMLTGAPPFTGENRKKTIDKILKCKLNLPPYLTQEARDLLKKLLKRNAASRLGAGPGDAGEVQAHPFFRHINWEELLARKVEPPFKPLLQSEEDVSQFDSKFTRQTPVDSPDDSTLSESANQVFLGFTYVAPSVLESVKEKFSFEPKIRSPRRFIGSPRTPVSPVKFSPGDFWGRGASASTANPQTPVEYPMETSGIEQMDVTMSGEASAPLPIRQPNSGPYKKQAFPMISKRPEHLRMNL
Chain of Serine/threonine-protein kinase Chk1 (Homo sapiens) (O14757 whole entry): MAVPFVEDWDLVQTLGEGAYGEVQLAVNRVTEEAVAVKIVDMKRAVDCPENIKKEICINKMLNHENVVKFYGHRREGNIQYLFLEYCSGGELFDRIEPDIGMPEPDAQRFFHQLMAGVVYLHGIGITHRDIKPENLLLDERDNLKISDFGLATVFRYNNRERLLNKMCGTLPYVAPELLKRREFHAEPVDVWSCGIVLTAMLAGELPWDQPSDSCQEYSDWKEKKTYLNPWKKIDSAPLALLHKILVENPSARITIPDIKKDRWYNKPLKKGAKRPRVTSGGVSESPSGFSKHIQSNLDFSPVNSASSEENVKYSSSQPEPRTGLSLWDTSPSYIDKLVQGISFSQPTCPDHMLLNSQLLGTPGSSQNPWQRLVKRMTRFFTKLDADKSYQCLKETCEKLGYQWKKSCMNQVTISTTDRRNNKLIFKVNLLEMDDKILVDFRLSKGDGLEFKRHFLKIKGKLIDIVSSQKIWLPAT

Kd [1]: No binding
SMILES: C[C@@H]1C[C@H](C)CN(c2ncc(Cl)c(Nc3ccc4c(c3)cc(OC(C)(C)C(=O)O)c(=O)n4C)n2)C1
residual activity [2]: 86%

residual activity [3]: 103%
residual activity [5]: 101%
inhibition [6]: 12.5%
inhibition [7]: -5.25%
inhibition [8]: -8.13%
inhibition [9]: -7.81%
inhibition [10]: 6.5%
residual activity [12]: 101%
residual activity [13]: 106%
inhibition [14]: 1.96%
residual activity [15]: 106%
inhibition [16]: -5.1%
residual activity [17]: 100%
residual activity [18]: 91%
residual activity [19]: 110%
residual activity [20]: 97%
residual activity [21]: 111%
residual activity [22]: 118%
residual activity [23]: 105%
inhibition [24]: 9.75%
residual activity [25]: 93%
residual activity [26]: 97%
residual activity [27]: 89%
residual activity [28]: 97%
residual activity [30]: 102%
residual activity [31]: 102%
SMILES: CNC(=O)COc1cc2cc(Nc3nc(N4C[C@H](C)C[C@H](C)C4)ncc3Cl)ccc2n(C)c1=O
residual activity [4]: 84%
activity at 10 µM [11]: 105% (not active)
residual activity [29]: 89%
